Measurements published in ChEMBL document CHEMBL6092170, “Activity of the Caged Xanthone Morellic Acid against Vancomycin-Resistant Enterococcus Infection by Targeting the Bacterial Membrane” (2024).
Converted amounts (≈) assume the structure as drawn. The source made the active and inactive calls. The calls are words filed in the database; no cut-off is given here.

Experiments:
Enterococcus faecalis [1] = experiment: Antibacterial activity against vancomycin-resistant Enterococcus faecalis ATCC 51299 incubated for 24 hrs by CLSI based microdilution method; assay type: functional
Staphylococcus aureus [2] = experiment: Antibacterial activity against methicillin-resistant Staphylococcus aureus incubated for 24 hrs by CLSI based microdilution method; assay type: functional
Enterococcus faecalis [3] = experiment: Induction of resistance development in vancomycin-resistant Enterococcus faecalis ATCC 51299 at sub-MIC measured after 20 days of continuous passages; assay type: functional, organism-based; conditions: time 20.0 day
Enterococcus faecalis [4] = experiment: Induction of resistance development in vancomycin-resistant Enterococcus faecalis ATCC 51299 assessed as fold increase in activity at sub-MIC measured after 4 days of continuous passages relative to control; assay type: functional; conditions: time 4 day
Enterococcus faecalis [5] = experiment: Antibacterial activity against vancomycin-resistant Enterococcus faecalis ATCC 51299 assessed as bacterial growth inhibition at 0.5 to 4 times MIC measured after 12 hrs by absorbance based assay; assay type: functional, organism-based
Staphylococcus aureus [6] = experiment: Antibacterial activity against Staphylococcus aureus assessed as bacterial growth inhibition at 0.5 to 4 times MIC measured for 4 hrs by absorbance based assay; assay type: functional, organism-based
Enterococcus faecalis [7] = experiment: Antibacterial activity against vancomycin-resistant Enterococcus faecalis ATCC 51299 infected in specific pathogen-free Kunming mouse model of abdominal infection assessed as reduction in bacterial load in abdominal effusion at 10 mg/kg, ip measured after 72 hrs by plate counting method; assay type: functional, organism-based
Enterococcus faecalis [8] = experiment: Disruption of morphology in vancomycin-resistant Enterococcus faecalis ATCC 51299 at 4 times MIC incubated for 18 hrs by SEM analysis; assay type: functional, organism-based
Enterococcus faecalis [9] = experiment: Antibacterial activity against vancomycin-resistant Enterococcus faecalis ATCC 51299 infected in specific pathogen-free Kunming mouse model of abdominal infection assessed as reduction in bacterial load in kidney at 10 mg/kg, ip measured after 72 hrs by plate counting method; assay type: functional, organism-based
Enterococcus faecalis [10] = experiment: Antibacterial activity against vancomycin-resistant Enterococcus faecalis ATCC 51299 infected in specific pathogen-free Kunming mouse model of abdominal infection assessed as reduction in bacterial load in spleen at 10 mg/kg, ip measured after 72 hrs by plate counting method; assay type: functional, organism-based
Enterococcus faecalis [11] = experiment: Antibacterial activity against vancomycin-resistant Enterococcus faecalis ATCC 51299 infected in specific pathogen-free Kunming mouse model of abdominal infection assessed as reduction in bacterial load in liver at 10 mg/kg, ip measured after 72 hrs by plate counting method; assay type: functional, organism-based
Enterococcus faecalis [12] = experiment: Disruption of membrane integrity in vancomycin-resistant Enterococcus faecalis ATCC 51299 at 2 times MIC incubated for 2 hrs by PI staining based CLSM analysis; assay type: functional, organism-based
Enterococcus faecalis [13] = experiment: Disruption of membrane integrity in vancomycin-resistant Enterococcus faecalis ATCC 51299 at 2 times MIC incubated for 2 hrs by SYTOX Green staining based CLSM analysis; assay type: functional, organism-based
Enterococcus faecalis [14] = experiment: Disruption of membrane integrity in vancomycin-resistant Enterococcus faecalis ATCC 51299 at 2 times MIC incubated for 2 hrs by Hoechst staining based CLSM analysis; assay type: functional, organism-based

| SMILES | MIC (Enterococcus faecalis [1]) [mg/L] | MIC (Staphylococcus aureus [2]) [mg/L] | further results |
| --- | --- | --- | --- |
| COc1c(O)cc2oc3cc(O)c(CCC(C)(C)O)c(O)c3c(=O)c2c1CC=C(C)C | 16 (≈ 37.3 µM) | 16 (≈ 37.3 µM) |  |
| C=C(C)C1CC[C@]2(C)CC1c1c(O)c3c(c(CC=C(C)C)c1O2)O[C@]12C(=C[C@@H]4CC1C(C)(C)OC2(C/C=C(\C)C(=O)O)C4=O)C3=O (stereo partly drawn) | > 16 | > 16 |  |
| CC(C)=CCC[C@]1(C)CC(O)c2c(O)c3c(c(CC=C(C)C)c2O1)O[C@]12C(=C[C@@H]4C[C@H]1C(C)(C)O[C@@]2(C/C=C(/C)C(=O)O)C4=O)C3=O (stereo partly drawn) | 16 (≈ 24.7 µM) | 8 (≈ 12.4 µM) |  |
| CCCCCCCCCC(=O)N[C@@H](Cc1c[nH]c2ccccc12)C(=O)N[C@@H](CC(N)=O)C(=O)N[C@@H](CC(=O)O)C(=O)N[C@@H]1C(=O)NCC(=O)N[C@@H](CCCN)C(=O)N[C@@H](CC(=O)O)C(=O)N[C@H](C)C(=O)N[C@@H](CC(=O)O)C(=O)NCC(=O)N[C@H](CO)C(=O)N[C@@H]([C@@H](C)CC(=O)O)C(=O)N[C@@H](CC(=O)c2ccccc2N)C(=O)O[C@@H]1C |  |  | Activity (Enterococcus faecalis [3]): inactive; fold change (FC) (Enterococcus faecalis [4]): 32 |
| COc1cc2oc3cc(OC)c(OC)c(CC=C(C)C)c3c(=O)c2c(O)c1CC=C(C)C | > 16 | > 16 |  |
| CC(C)=CCC[C@]1(C)C=Cc2c(O)c3c(c(CC=C(C)C)c2O1)O[C@]12C(=C[C@@H]4C[C@H]1C(C)(C)O[C@@]2(C/C=C(/C)C(=O)O)C4=O)C3=O [GAMBOGIC ACID] | 4 (≈ 6.36 µM) | 4 (≈ 6.36 µM) |  |
| CN[C@H](CC(C)C)C(=O)N[C@H]1C(=O)N[C@@H](CC(N)=O)C(=O)N[C@H]2C(=O)N[C@H]3C(=O)N[C@H](C(=O)N[C@H](C(=O)O)c4cc(O)cc(O)c4-c4cc3ccc4O)[C@H](O)c3ccc(c(Cl)c3)Oc3cc2cc(c3O[C@@H]2O[C@H](CO)[C@@H](O)[C@H](O)[C@H]2O[C@H]2C[C@](C)(N)[C@H](O)[C@H](C)O2)Oc2ccc(cc2Cl)[C@H]1O |  |  | inhibition (Enterococcus faecalis [5]): inactive |
| COc1cc2oc3cc(O)c(OC)c(CC=C(C)C)c3c(=O)c2c(O)c1CC=C(C)C | 16 (≈ 37.7 µM) | > 16 |  |
| COc1c(O)cc2oc3cc(O)c(CC=C(C)C)c(O)c3c(=O)c2c1CCC(C)(C)O [GARCINONE D] | 4 (≈ 9.34 µM) | 8 (≈ 18.7 µM) |  |
| CC(C)=CCc1c(O)cc2oc3cc(O)c(O)c(CCC(C)(C)O)c3c(=O)c2c1O | > 16 | 4 (≈ 9.65 µM) |  |
| CC1(C)S[C@@H]2[C@H](NC(=O)[C@H](N)c3ccccc3)C(=O)N2[C@H]1C(=O)O [AMPICILLIN] | 4 (≈ 11.4 µM) |  | inhibition (Staphylococcus aureus [6]): Active; Activity (Enterococcus faecalis [7]): Active; Activity (Enterococcus faecalis [8]): Active; Activity (Enterococcus faecalis [9]): Active; Activity (Enterococcus faecalis [10]): Active; Activity (Enterococcus faecalis [11]): Active |
| CC(C)=CCc1c(O)cc2oc3cc(O)c(O)c(CC=C(C)C)c3c(=O)c2c1O | 4 (≈ 10.1 µM) | 4 (≈ 10.1 µM) |  |
| CC(C)=CCc1c(O)c(CC=C(C)C)c2oc3c(O)cccc3c(=O)c2c1O [8-DEOXYGARTANIN] | > 16 | > 16 |  |
| COc1c(O)cc2oc3cc(O)c(CC=C(C)C)c(O)c3c(=O)c2c1CC=C(C)C [MANGOSTIN] | 4 (≈ 9.75 µM) | 4 (≈ 9.75 µM) |  |
| CC(C)=CCc1c(O)c(CC=C(C)C)c2oc3c(O)ccc(O)c3c(=O)c2c1O [GARTANIN] | > 16 | > 16 |  |
| CO[C@@]1(NC(=O)Cc2cccs2)C(=O)N2C(C(=O)O)=C(COC(N)=O)CS[C@@H]21 [CEFOXITIN] |  | > 16 |  |
| CC[C@H](C)[C@H](NC(=O)CN)C(=O)NCC(=O)N[C@@H](C)C(=O)N[C@H](C(=O)N[C@@H](CC(C)C)C(=O)N[C@@H](CCCCN)C(=O)N[C@H](C(=O)N[C@@H](CC(C)C)C(=O)N[C@H](C(=O)N[C@H](C(=O)NCC(=O)N[C@@H](CC(C)C)C(=O)N1CCC[C@H]1C(=O)N[C@@H](C)C(=O)N[C@@H](CC(C)C)C(=O)N[C@H](C(=O)N[C@@H](CO)C(=O)N[C@@H](Cc1c[nH]c2ccccc12)C(=O)N[C@H](C(=O)N[C@@H](CCCCN)C(=O)N[C@@H](CCCNC(=N)N)C(=O)N[C@@H](CCCCN)C(=O)N[C@@H](CCCNC(=N)N)C(=O)N[C@@H](CCC(N)=O)C(=O)N[C@@H](CCC(N)=O)C(N)=O)[C@@H](C)CC)[C@@H](C)CC)[C@@H](C)O)[C@@H](C)O)C(C)C)C(C)C |  |  | Activity (Enterococcus faecalis [12]): Active; Activity (Enterococcus faecalis [13]): Active; Activity (Enterococcus faecalis [14]): Active |
